From US9718790B2, “Triazine derivative and pharmaceutical composition having an analgesic activity comprising the same” (SHIONOGI & CO., LTD., priority 2010, dated 2017)

Biological target: human P2X3 receptor (Homo sapiens (Human), UniProt P56373)
Test: Evaluation of human P2X3 receptor inhibitory activity (Fluo-3 calcium fluorescence, FDSS 3000, ATP stimulation);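 note: stimulus was 50 nM ATP with fluorescence followed for 3 min, and the response per well was peak post-ATP fluorescence divided by the reading at measurement start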
Assay type: cell-based
[1] = C6BU-1 cells stably expressing human P2X3 receptor, Fluo-3 fluorescence, FDSS 3000
[2] = human P2X3 receptor, Test Example 1
[3] = C6BU-1 cells stably expressing human P2X3 receptor

human P2X3 receptor, sequence (P56373 whole entry): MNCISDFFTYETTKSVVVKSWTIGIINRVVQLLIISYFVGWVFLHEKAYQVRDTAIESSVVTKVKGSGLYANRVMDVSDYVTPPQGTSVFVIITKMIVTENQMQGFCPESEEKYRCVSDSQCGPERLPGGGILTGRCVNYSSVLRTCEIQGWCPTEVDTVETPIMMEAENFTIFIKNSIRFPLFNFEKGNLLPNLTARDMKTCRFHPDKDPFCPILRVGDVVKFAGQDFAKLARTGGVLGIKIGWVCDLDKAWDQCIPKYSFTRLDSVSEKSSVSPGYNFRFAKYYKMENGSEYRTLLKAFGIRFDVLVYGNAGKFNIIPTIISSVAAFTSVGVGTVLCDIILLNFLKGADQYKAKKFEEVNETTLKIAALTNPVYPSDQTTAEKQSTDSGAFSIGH

SMILES	IC50 [2]	IC50 [3]	other results
Cc1cc(Oc2ccc(/N=c3\[nH]c(=O)n(CCCO)c(=O)n3Cc3ccc(Cl)cc3)cc2)ccn1 [Compound I-1599]	–	–	IC50 [1]: 5 nM
Cn1cc(Oc2ccc(/N=c3\[nH]c(=O)n(CCC(=O)O)c(=O)n3Cc3ccc(Cl)cc3)cc2)ccc1=O [Compound I-1512]	13 nM	–	–
COC(=O)CCn1c(=O)[nH]/c(=N\c2ccc(Oc3cccc(C(N)=O)n3)cc2)n(Cc2ccc(Cl)cc2)c1=O [Compound I-2684]	2 nM	–	–
CNC(=O)[C@H](CCO)n1c(=O)[nH]/c(=N\c2ccc(OC(C)C)c(C)c2)n(Cc2ccc(Cl)cc2)c1=O [Compound I-0869]	574 nM	–	–
CCn1c(=O)[nH]/c(=N\c2ccc(Oc3nccc(C(N)=O)n3)cc2)n(Cc2ccc(Cl)cc2)c1=O [Compound I-2311]	8 nM	–	–
CCOC(=O)C(CNc1ccc(OC(C)C)c(C)c1)Cn1c(=O)[nH]/c(=N\c2ccc(OC(C)C)c(C)c2)n(Cc2ccc(Cl)cc2)c1=O (stereo not shown) [Compound I-0778]	–	84 nM	–
CC(C)Oc1ccc(/N=c2\[nH]c(=O)n(Cc3cccn(C)c3=O)c(=O)n2Cc2ccc(Cl)cc2)cc1F [Compound I-0689]	–	5 nM	–
NC(=O)c1ccc(Oc2ccc(/N=c3\[nH]c(=O)n(CCO)c(=O)n3Cc3ccc(Cl)cc3)cc2)cc1 [Compound I-2559]	8 nM	–	–
COC(=O)[C@@H](C)Cn1c(=O)[nH]/c(=N\c2ccc(NC(=O)C(C)C)c(Cl)c2)n(Cc2ccc(C)cc2)c1=O [Compound I-1419]	–	304 nM	–
CCC(CC)Oc1ccc(/N=c2\[nH]c(=O)n(CCC(=O)O)c(=O)n2Cc2ccc(C)cc2)cc1 [Compound I-1069]	–	–	IC50 [1]: 111 nM
COC(=O)[C@@H](C)Cn1c(=O)[nH]/c(=N\c2cccc(C3CCCC3)c2)n(Cc2ccc(C)cc2)c1=O [Compound I-1089]	–	–	IC50 [1]: 487 nM
Cc1ccc(Cn2c(=O)n(CC3(CC(=O)O)CC3)c(=O)[nH]/c2=N\c2ccc(OC(C)C)c(C)c2)cc1 [Compound I-0984]	–	–	IC50 [1]: 21 nM
CC(C)Oc1ccc(/N=c2\[nH]c(=O)n(CCC(=O)NO)c(=O)n2Cc2ccc(Cl)cc2)cc1F [Compound I-0603]	–	12 nM	–
Cc1cc(Oc2ccc(/N=c3\[nH]c(=O)n(C[C@H](O)CO)c(=O)n3Cc3ccc(Cl)cc3)cc2)ccn1 [Compound I-1987]	–	7 nM	–
CCCc1ccc(/N=c2\[nH]c(=O)n(C[C@H](C)C(=O)OC)c(=O)n2Cc2ccc(C)cc2)cc1C [Compound I-1210]	–	37 nM	–
CC(C)Oc1ccc(/N=c2\[nH]c(=O)n(C[C@@H](O)CO)c(=O)n2Cc2ccc(Cl)cc2)cc1Cl [Compound I-0616]	–	10 nM	–
COC(=O)[C@H](C)[C@H](C)n1c(=O)[nH]/c(=N\c2ccc(OC(C)C)c(C)c2)n(Cc2ccc(C)cc2)c1=O [Compound I-0927]	–	–	IC50 [1]: 21 nM
COC(=O)[C@@H](C)Cn1c(=O)[nH]/c(=N\c2cccc(SC)c2)n(Cc2ccc(C)cc2)c1=O [Compound I-1153]	–	–	IC50 [1]: 71 nM
Cc1cnc(Oc2ccc(/N=c3\[nH]c(=O)n(CC(N)=O)c(=O)n3Cc3ccc(Cl)cc3)cc2)s1 [Compound I-2647]	16 nM	–	–
CCc1cc(/N=c2\[nH]c(=O)n(C[C@H](C)C(=O)O)c(=O)n2Cc2ccc(C)cc2)ccc1OC(C)C [Compound I-0911, (S)-1-(4-methylbenzyl)-6-(3-ethyl-4-isopropoxyphenylimino)-3-(2-hydroxycarbonylpropyl)-1,3,5-triazinane-2,4-dion]	–	–	IC50 [1]: 15 nM
Cc1ccc(Cn2c(=O)n(CC3(C(=O)O)CC3)c(=O)[nH]/c2=N\c2ccc3nc(C)sc3c2)cc1 [Compound I-1554]	14 nM	–	–
C[C@@H](C(=O)O)[C@H](C)n1c(=O)[nH]/c(=N\c2ccc3c(c2)OCC(=O)N3)n(Cc2ccc(Cl)cc2)c1=O [Compound I-1786]	–	–	IC50 [1]: 621 nM

SMILES	IC50 [2]	IC50 [3]	other results
O=C(O)Cn1c(=O)[nH]/c(=N\c2ccc(Oc3cccc(F)n3)cc2)n(Cc2ccc(Cl)cc2)c1=O [Compound I-2564]	269 nM	–	–
CCC[C@H](C)Oc1ccc(/N=c2\[nH]c(=O)n(CCC(=O)OCC)c(=O)n2Cc2ccc(C)cc2)cc1 [Compound I-1052]	–	–	IC50 [1]: 19 nM
CCOC(=O)c1cc2cc(/N=c3\[nH]c(=O)n(C[C@H](C)C(=O)OC)c(=O)n3Cc3ccc(Cl)cc3)ccc2o1 [Compound I-1938]	–	312 nM	–
CC(C)Oc1ccc(/N=c2\[nH]c(=O)n(Cc3nnn[nH]3)c(=O)n2Cc2ccc(Cl)cc2)cc1F [Compound I-1297]	–	26 nM	–
Cc1nsc(Oc2ccc(/N=c3\[nH]c(=O)n(CC(CO)CO)c(=O)n3Cc3ccc(Cl)cc3)cc2)n1 [Compound I-2520]	2 nM	–	–
COC(=O)[C@@H](C)Cn1c(=O)[nH]/c(=N\c2ccc(OC(F)F)c(F)c2)n(Cc2ccc(Cl)cc2)c1=O [Compound I-0655]	–	67 nM	–
COC(=O)[C@@H](C)[C@@H](C)n1c(=O)[nH]/c(=N\c2ccc(N3CCCCC3)cc2)n(Cc2ccc(Cl)cc2)c1=O [Compound I-1454]	–	23 nM	–
CCn1c(=O)[nH]/c(=N\c2ccc(Oc3ccc(C(=O)O)cc3)cc2)n(Cc2ccc(Cl)cc2)c1=O [Compound I-1969]	–	21 nM	–
Cn1c(=O)[nH]/c(=N\c2ccc(Oc3ccc(C(=O)O)cn3)cc2)n(Cc2ccc(Cl)cc2)c1=O [Compound I-2442]	18 nM	–	–
CCn1c(=O)[nH]/c(=N\c2ccc(OCCc3ccccn3)cc2)n(Cc2ccc(Cl)cc2)c1=O [Compound I-2201]	–	92 nM	–
Cc1cc(Oc2ccc(/N=c3\[nH]c(=O)[nH]c(=O)n3Cc3ccc(Cl)cc3)cc2)ccn1 [Compound I-1955]	–	97 nM	–
CCn1c(=O)[nH]/c(=N\c2ccc(Oc3cncc(C(=O)OC)c3)cc2)n(CC2CCC(C)(C)CC2)c1=O [Compound I-2204]	–	28 nM	–
O=C(O)CCn1c(=O)[nH]/c(=N\c2ccc(Oc3ccon3)cc2)n(Cc2ccc(Cl)cc2)c1=O [Compound I-2435]	37 nM	–	–
Cc1ccc(Cn2c(=O)n(C[C@H](C)C(=O)O)c(=O)[nH]/c2=N\c2cc(Cl)cc(Cl)c2)cc1 [Compound I-1500]	897 nM	–	–
Cc1nc2ccc(/N=c3\[nH]c(=O)n(CC(CO)CO)c(=O)n3Cc3ccc(Cl)cc3)cc2s1 [Compound I-1544]	4 nM	–	–
CCn1c(=O)[nH]/c(=N\c2ccc(Oc3ccsc3C(=O)OC)cc2)n(Cc2ccc(Cl)cc2)c1=O [Compound I-2037]	–	340 nM	–
CCn1c(=O)[nH]/c(=N\c2ccc(Oc3cc(C(=O)O)sn3)cc2)n(Cc2ccc(Cl)cc2)c1=O [Compound I-2249]	6 nM	–	–
CC[C@H](C)Oc1ccc(/N=c2\[nH]c(=O)n(C[C@H](C)C(=O)O)c(=O)n2Cc2ccc(C)cc2)cc1Cl [Compound I-1014]	–	–	IC50 [1]: 17 nM
O=C(Cn1c(=O)[nH]/c(=N\c2ccc(Oc3ccon3)cc2)n(Cc2ccc(Cl)cc2)c1=O)NCCO [Compound I-2680]	12 nM	–	–
CC(C)=Cc1ccc(/N=c2\[nH]c(=O)n(C[C@H](C)C(=O)O)c(=O)n2Cc2ccc(C)cc2)cc1F [Compound I-1174]	–	–	IC50 [1]: 27 nM
COc1cc(/N=c2\[nH]c(=O)n(C[C@H]3COC(C)(C)O3)c(=O)n2Cc2ccc(Cl)cc2)ccc1OC(C)C [Compound I-2001]	–	5 nM	–
CSc1n/c(=N\c2ccc(OC(C)C)cc2)n(Cc2ccc(Cl)cc2)c(=O)n1C(C)C [Compound I-2301]	437 nM	–	–

SMILES	IC50 [2]	IC50 [3]	other results
CCn1c(=O)[nH]/c(=N\c2ccc(Oc3ccc(N)nc3)cc2)n(Cc2ccc(Cl)cc2)c1=O [Compound I-2214]	–	22 nM	–
Cc1ccc(Cn2c(=O)n([C@@H](C)[C@@H](C)C(=O)O)c(=O)[nH]/c2=N\c2ccc3nc(C)sc3c2)cc1 [Compound I-1470]	–	10 nM	–
CNC(=NC#N)NCCCn1c(=O)[nH]/c(=N\c2ccc(OC(C)C)c(F)c2)n(Cc2ccc(Cl)cc2)c1=O [Compound I-0615]	–	5 nM	–
COC(=O)c1cccc(Oc2ccc(/N=c3\[nH]c(=O)[nH]c(=O)n3Cc3ccc(Cl)cc3)cc2)c1 [Compound I-1919]	–	214 nM	–
COC(=O)CCn1c(=O)[nH]/c(=N\c2ccc(OC(C)C)c(Cl)c2)n(Cc2ccc(C)cc2)c1=O [Compound I-2023]	–	4 nM	–
Cc1ccc(/N=c2\[nH]c(=O)n(C[C@H](C)C(=O)O)c(=O)n2Cc2ccc(Cl)cc2)cc1C(F)(F)F [Compound I-0843]	183 nM	–	–
CCCOc1ccc(/N=c2\[nH]c(=O)n([C@H](C)CC(=O)OC)c(=O)n2Cc2ccc(C)cc2)cc1Cl [Compound I-0877]	28 nM	–	–
Cc1ccc(Cn2c(=O)n([C@H](C)[C@H](C)C(=O)O)c(=O)[nH]/c2=N\c2ccc(OC(C)C)c(F)c2)cc1 [Compound I-1338]	–	36 nM	–
NC(=O)Cn1c(=O)[nH]/c(=N\c2ccc(Oc3ccon3)cc2)n(Cc2ccc(Cl)cc2)c1=O [Compound I-2512]	11 nM	–	–
C=COc1ccc(N(C)c2nc(=O)n(C[C@H](C)C(=O)OC)c(=O)n2Cc2ccc(C)cc2)cc1Cl [Compound I-1550]	833 nM	–	–
Cc1cc(/N=c2\[nH]c(=O)n(C3CNC3)c(=O)n2Cc2ccc(Cl)cc2)ccc1OC(C)C [Compound I-1709]	–	–	IC50 [1]: 167 nM
CCn1c(=O)[nH]/c(=N\c2ccc(Oc3ccc(C(=O)O)cc3)cc2)n(Cc2ccc(C)cc2)c1=O [Compound I-2035]	–	22 nM	–
COC(=O)[C@@H](C)Cn1c(=O)[nH]/c(=N\c2ccc3nc(C)c(C)nc3c2)n(Cc2ccc(Cl)cc2)c1=O [Compound I-1320]	–	365 nM	–
O=C(O)CCn1c(=O)[nH]/c(=N\c2ccc(Oc3ccc(F)cc3)cc2)n(Cc2ccc(Cl)cc2)c1=O [Compound I-1877]	–	–	IC50 [1]: 36 nM
Cc1sc(Oc2ccc(/N=c3\[nH]c(=O)n(C)c(=O)n3Cc3ccc(Cl)cc3)cc2)nc1C(=O)O [Compound I-2451]	25 nM	–	–
CCc1oc2ccc(/N=c3\[nH]c(=O)n(CC(C)(C)C(=O)OC)c(=O)n3Cc3ccc(Cl)cc3)cc2c1C [Compound I-1574]	–	–	IC50 [1]: 18 nM
CCn1c(=O)[nH]/c(=N\c2ccc(Oc3cc(C(=O)O)on3)cc2)n(Cc2ccc(Cl)cc2)c1=O [Compound I-1963]	–	13 nM	–
CNC(=O)c1cc(Oc2ccc(/N=c3\[nH]c(=O)n(C)c(=O)n3Cc3ccc(C)cc3)cc2)ccn1 [Compound I-2012]	–	9 nM	–
C=C(C)c1ccc(/N=c2\[nH]c(=O)n(C[C@H](C)C(=O)O)c(=O)n2Cc2ccc(C)cc2)cc1Cl [Compound I-1492]	461 nM	–	–
COC(=O)[C@@H](C)Cn1c(=O)[nH]/c(=N\c2cccc(C3CCCCC3)c2)n(Cc2ccc(C)cc2)c1=O [Compound I-1088]	–	–	IC50 [1]: 548 nM
